EC50 data for three compounds are collected here from patent US10118922B2 (Janssen Pharmaceutica NV, priority 2013, dated 2018).

This test addresses T1, long form of human GPR120 (Homo sapiens, UniProt Q5NUL3).
T1 construct: host or cells: PathHunter CHO-K1 GPR120 β-Arrestin Cell Line
T1 sequence (Q5NUL3 1-377 isoform Q5NUL3-1): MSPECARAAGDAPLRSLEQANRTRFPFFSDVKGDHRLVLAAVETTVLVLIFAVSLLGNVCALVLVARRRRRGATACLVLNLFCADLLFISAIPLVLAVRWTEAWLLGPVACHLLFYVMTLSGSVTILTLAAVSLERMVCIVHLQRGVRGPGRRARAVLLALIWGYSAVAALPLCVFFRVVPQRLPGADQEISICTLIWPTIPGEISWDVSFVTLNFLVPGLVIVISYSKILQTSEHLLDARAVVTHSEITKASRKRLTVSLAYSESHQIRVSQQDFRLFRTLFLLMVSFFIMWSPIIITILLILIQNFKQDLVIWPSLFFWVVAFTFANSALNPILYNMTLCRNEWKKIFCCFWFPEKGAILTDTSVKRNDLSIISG
As to the kind of experiment: Human GPR120 DiscoveRx PathHunter beta-arrestin assay, Procedure β-arrestin A. The format is cell-based. Particulars: PathHunter CHO-K1 GPR120 β-Arrestin cells, 3000 cells per well; read-out: hGPR120 β-arrestin A EC50. From the text:
The binding of an agonist (medium/long chain fatty acids or small molecule agonists) to the G-protein-coupled receptor GPR120 activates phospholipase C, leading to release of intracellular Ca^+2 through the generation of inositol 1,4,5-trisphosphate (InsP3 or IP3). GPR120 activation can also trigger intracellular signaling via recruitment of Beta-Arrestin. In the present method, agonist-induced activation of the human GPR120 receptor is monitored through the use of PathHunter CHO-K1 GPR120 Beta-Arrestin Cell Line engineered by DiscoveRx, as detailed below. The cell lines are designed to co-express both the ProLink/Enzyme Donor (PK)-tagged GPCR and the Enzyme […] (EA)-tagged Beta-Arrestin fusion proteins. Upon GPR120 receptor stimulation/activation, the EA-tagged Beta-Arrestin portion is translocated to the tagged receptor, where the two enzyme fragments are brought within close proximity. Under these conditions, these fragments can interact and form an active Beta-gal enzyme complex through Enzyme Fragment Complementation (EFC). […] This in vitro assay therefore serves to assess compound agonist activity of the GPR120.
In Procedure β-arrestin A, the cell used were PathHunter CHO-K1 GPR120 β-Arrestin Cell Line, expressing the long form of human GPR120 (Genbank accession number NM_181745), with 3000 cells per well.
The selected CHO-K1 GPR120 β-Arrestin cells were cultured in Ham's F12 media supplemented with 10% fetal bovine serum (FBS), 1% Glutamine, 1×p/s, 800 μg/mL G418 and 300 μg/mL Hygromycin B (for selection). Cell stocks were maintained and grown in a sub-confluent state using standard cell culture procedures. The day before the experiment, the cells were harvested with non-enzymatic cell dissociation buffer and re-suspended in complete growth media at the desired concentration. […] The seeded plates were incubated overnight at 37° C.
On the day of the experiment, the Assay Buffer containing (a) HBSS with Ca^++ and Mg^++, (b) 20 mM HEPES, and (c) 0.1% BSA stabilizer (pH 7.4) was prepared. The growth medium was gently removed from the cell plates and 20 μL of Assay Buffer added to each well. The plate was then incubated at 37° C. for 60 min. […] Five μL of compound dilution was then added to each well and the plate incubated at 37° C. for 90 min. The detection reagents were prepared according to the manufacture's instruction. Twelve μL of the detection reagents were added to each well and the plate incubated at room temperature for 60 min.
The % activity relative to the positive control was calculated using the following equation:
The Fitting Equation was: Y=Bottom+(Top-Bottom)/(1+10^((Log EC50−X)*HillSlope)), where X is the log of the concentration and Y is the response.

One may read the EC50 as the concentration needed to bring the measured effect to its halfway point. Regarding `O=C(O)CCc1cc(F)c(OCc2sc(Cl)cc2-c2ccc(Cl)cc2)c(F)c1` [Cpd 2, 3-(4-{[5-Chloro-3-(4-chlorophenyl)thiophen-2-yl]methoxy}-3,5-difluorophenyl)propanoic acid], the EC50 was found to be 97 nM.
Regarding `Cc1sc(-c2ccccc2)c(COc2ccc(CCC(=O)O)c(C)c2C)c1C(F)(F)F` [Cpd 33, 3-(2,3-Dimethyl-4-{[5-methyl-2-phenyl-4-(trifluoromethyl)thiophen-3-yl]methoxy}phenyl)propanoic acid], the EC50 was 431 nM.
Consider `OCCCc1cc(F)c(OCc2c(Cl)nsc2-c2ccc(Cl)cc2)c(F)c1` [Cpd 78, 3-(4-{[3-Chloro-5-(4-chlorophenyl)isothiazol-4-yl]methoxy}-3,5-difluorophenyl)propan-1-ol], for which the EC50 was determined as 28 nM.
